According to ChEMBL document CHEMBL5550183, “Discovery of Novel 1-Phenylpiperidine Urea-Containing Derivatives Inhibiting β-Catenin/BCL9 Interaction and Exerting Antitumor Efficacy through the Activation of Antigen Presentation of cDC1 Cells” (J Med Chem, 2024):

Key:
[1] = biological target: T1, beta-catenin-B-cell lymphoma 9 protein complex (Homo sapiens, UniProt P35222); assay: Inhibition of full length his-tagged human beta-catenin (1 to 781 residues) expressed in Escherichia coli DE3/N-terminal FAM-tagged human BCL9 (350 to 375 residues) protein-protein interaction incubated for 2 hrs by fluorescence polarization assay
T1 sequence (P35222 whole entry): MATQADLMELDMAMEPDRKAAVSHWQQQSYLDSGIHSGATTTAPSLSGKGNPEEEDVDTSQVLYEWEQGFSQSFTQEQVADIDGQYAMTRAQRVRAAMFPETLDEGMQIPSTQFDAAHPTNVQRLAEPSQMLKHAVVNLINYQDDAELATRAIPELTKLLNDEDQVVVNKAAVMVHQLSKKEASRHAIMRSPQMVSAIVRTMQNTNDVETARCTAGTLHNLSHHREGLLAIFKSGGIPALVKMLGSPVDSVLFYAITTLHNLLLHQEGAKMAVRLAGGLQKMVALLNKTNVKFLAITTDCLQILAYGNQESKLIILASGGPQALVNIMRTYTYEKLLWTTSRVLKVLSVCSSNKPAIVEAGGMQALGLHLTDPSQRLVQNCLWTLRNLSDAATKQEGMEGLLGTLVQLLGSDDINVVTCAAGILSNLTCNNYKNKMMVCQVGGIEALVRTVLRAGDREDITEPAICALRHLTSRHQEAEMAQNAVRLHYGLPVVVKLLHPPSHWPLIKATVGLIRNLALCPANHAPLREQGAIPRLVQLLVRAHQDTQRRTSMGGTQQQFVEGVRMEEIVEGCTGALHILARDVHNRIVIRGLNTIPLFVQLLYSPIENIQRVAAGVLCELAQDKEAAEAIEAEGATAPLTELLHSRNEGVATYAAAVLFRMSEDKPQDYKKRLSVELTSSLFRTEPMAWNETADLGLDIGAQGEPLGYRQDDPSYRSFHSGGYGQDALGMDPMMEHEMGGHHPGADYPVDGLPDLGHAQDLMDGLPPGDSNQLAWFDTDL
T1 sequence (O00512 whole entry): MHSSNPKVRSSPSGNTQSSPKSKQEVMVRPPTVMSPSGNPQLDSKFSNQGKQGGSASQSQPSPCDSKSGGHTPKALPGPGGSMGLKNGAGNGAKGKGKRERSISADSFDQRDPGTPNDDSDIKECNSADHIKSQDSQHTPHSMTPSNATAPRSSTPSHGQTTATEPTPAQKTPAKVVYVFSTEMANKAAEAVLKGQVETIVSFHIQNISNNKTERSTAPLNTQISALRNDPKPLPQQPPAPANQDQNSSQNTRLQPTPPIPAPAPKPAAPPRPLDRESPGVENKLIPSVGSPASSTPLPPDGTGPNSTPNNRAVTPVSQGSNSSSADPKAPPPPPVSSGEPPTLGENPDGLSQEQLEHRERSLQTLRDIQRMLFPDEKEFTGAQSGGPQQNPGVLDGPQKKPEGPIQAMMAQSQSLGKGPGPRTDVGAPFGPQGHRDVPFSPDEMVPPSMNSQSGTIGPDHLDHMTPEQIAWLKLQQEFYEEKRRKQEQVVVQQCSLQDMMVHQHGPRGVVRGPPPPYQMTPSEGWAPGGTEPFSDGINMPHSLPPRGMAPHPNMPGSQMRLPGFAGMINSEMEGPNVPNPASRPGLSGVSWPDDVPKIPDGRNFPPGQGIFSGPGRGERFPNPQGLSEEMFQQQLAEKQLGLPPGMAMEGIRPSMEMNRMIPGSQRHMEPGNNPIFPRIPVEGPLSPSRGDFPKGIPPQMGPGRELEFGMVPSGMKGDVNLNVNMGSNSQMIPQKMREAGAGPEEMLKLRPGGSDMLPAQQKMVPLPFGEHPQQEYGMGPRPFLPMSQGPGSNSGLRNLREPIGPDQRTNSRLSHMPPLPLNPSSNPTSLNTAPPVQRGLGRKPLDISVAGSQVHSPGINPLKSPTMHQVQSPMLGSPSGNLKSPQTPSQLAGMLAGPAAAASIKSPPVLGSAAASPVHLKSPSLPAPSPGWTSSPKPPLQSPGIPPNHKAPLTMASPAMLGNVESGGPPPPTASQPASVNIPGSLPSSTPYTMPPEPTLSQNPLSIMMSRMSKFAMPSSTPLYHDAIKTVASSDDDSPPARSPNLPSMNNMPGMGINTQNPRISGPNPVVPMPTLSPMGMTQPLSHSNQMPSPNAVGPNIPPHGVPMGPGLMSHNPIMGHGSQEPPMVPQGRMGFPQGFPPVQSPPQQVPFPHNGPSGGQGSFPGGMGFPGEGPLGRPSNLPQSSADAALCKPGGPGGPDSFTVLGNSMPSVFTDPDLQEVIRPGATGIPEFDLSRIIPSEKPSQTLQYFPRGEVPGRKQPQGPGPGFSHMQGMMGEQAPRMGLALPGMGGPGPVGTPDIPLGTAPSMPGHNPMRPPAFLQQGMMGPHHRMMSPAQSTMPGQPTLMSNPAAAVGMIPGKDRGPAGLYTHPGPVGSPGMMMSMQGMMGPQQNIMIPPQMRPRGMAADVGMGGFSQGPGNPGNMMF

Catenin beta-1 = biological target: T2, Catenin beta-1 (Homo sapiens, UniProt P35222); assay: Binding affinity to full length his-tagged human beta-catenin (1 to 781 residues) expressed in Escherichia coli DE3 assessed as dissociation constant by SPR analysis
T2 sequence (P35222 whole entry): T1 sequence (P35222 whole entry)

cells = conditions: Homo sapiens, HCT-116, 24 h
Description: Inhibition of Wnt/beta-catenin signaling pathway in human HCT-116 cells assessed as reduction in Axin2 expression incubated for 24 hrs by qPCR analysis

[2] = biological target: T1, beta-catenin-B-cell lymphoma 9 protein complex; assay: Inhibition of beta-catenin (unknown origin)/BCL9 (unknown origin) protein-protein interaction; format: protein-complex assay
[3] = Tmax in ICR mouse at 1 mg/kg, iv measured upto 24 hrs by HPLC-MS/MS analysis; format: ADME, organism-based; conditions: in vivo
[4] = Half life in ICR mouse at 1 mg/kg, iv measured upto 24 hrs by HPLC-MS/MS analysis; format: ADME, organism-based; conditions: in vivo
[5] = AUC (0 to t) in ICR mouse at 1 mg/kg, iv measured upto 24 hrs by HPLC-MS/MS analysis; format: ADME, organism-based; conditions: in vivo
[6] = Cmax in ICR mouse at 1 mg/kg, iv measured upto 24 hrs by HPLC-MS/MS analysis; format: ADME, organism-based; conditions: in vivo
[7] = Clearance in ICR mouse at 1 mg/kg, iv measured upto 24 hrs by HPLC-MS/MS analysis; format: ADME, organism-based; conditions: in vivo
CT26 [8] = assay: Antitumor activity against mouse CT26 cells implanted in BALB/c mouse assessed as tumor growth inhibition at 30 mg/kg, ip measured for 14 days; format: functional; conditions: CT26, 336 h, time 14 day, read-out: TGI
[9] = Toxicity in BALB/c mouse implanted with mouse CT26 cells assessed as body weight loss at 30 mg/kg, ip measured for 14 days; format: organism-based; conditions: in vivo, 336 h, time 14 day
in vitro [10] = conditions: mouse, liver microsomes
Description: Metabolic stability in mouse liver microsome assessed as half life preincubated with compound for 10 mins followed by NADPH addition and measured upto 60 mins by LC-MS/MS analysis

in vitro [11] = conditions: mouse, liver microsomes; remark: listed apart in the source
Description: Metabolic stability in mouse liver microsome assessed as clearance preincubated with compound for 10 mins followed by NADPH addition and measured upto 60 mins by LC-MS/MS analysis

CT26 [12] = assay: Antitumor activity against mouse CT26 cells implanted in BALB/c mouse assessed as tumor growth inhibition at 30 mg/kg, ip measured for 7 days; conditions: CT26, 168 h, read-out: TGI
CT26 [13] = assay: Antitumor activity against mouse CT26 cells implanted in BALB/c mouse assessed as increase in CD103+ expression level at 30 mg/kg, ip measured for 7 days by flow cytometry analysis (reference value: 4.95%); format: functional; conditions: time 7 day
[14] = Antitumor activity against mouse PBMC cells implanted in BALB/c mouse assessed as increase in CD103 + XCR1 cDC1 expression at 30 mg/kg, ip measured for 7 days by qPCR analysis; format: functional; conditions: time 7 day

| Compound | IC50 [1] [µM] | Kd (Catenin beta-1) [µM] | IC50 (cells) [µM] | further results |
| --- | --- | --- | --- | --- |
| CC(C)(Oc1cccc(N2CCC[C@H](NC(=O)N(Cc3ccc(-c4cn[nH]c4)cc3)C3CC3)C2)c1)C(=O)NCC(=O)N1CCCC1CCN (stereo partly specified) | 2.06 | 0.64 | 5.3 | – |
| O=C1[C@H](Cc2ccc(O)cc2)N2C(=O)CCN(C(=O)NCc3ccccc3)[C@H]2CN1Cc1cccc2ccccc12 | – | – | 3.34 | – |
| CC(C)(Oc1cccc(N2CCC[C@@H](NC(=O)N(Cc3ccc(-c4cn[nH]c4)cc3)C3CC3)C2)c1)C(=O)N1CCOCC1 | – | – | 5.41 | – |
| CCCC(=O)Oc1ccc([N+](=O)[O-])cc1 | – | – | – | Ki [2]: 2.1 µM |
| CC(C)(Oc1cccc(N2CCC[C@H](NC(=O)N(Cc3ccc(-c4cn[nH]c4)cc3)C3CC3)C2)c1)C(=O)NCCCN | – | – | > 10 | – |
| CC(C)(Oc1cccc(N2CCC[C@H](NC(=O)N(Cc3ccc(-c4cn[nH]c4)cc3)C3CC3)C2)c1)C(=O)NCCN | 1.83 | 0.25 | 7.5 | – |
| CC(C)(Oc1cccc(N2CCC[C@@H](NC(=O)N(Cc3ccc(-c4cn[nH]c4)cc3)C3CC3)C2)c1)C(=O)NCCCN | – | – | 2.88 | Tmax [3]: 4.8 min; half-life [4]: 40.2 min; AUC(0-t) at 24 h [5]: 430 ng·h/mL; Cmax [6]: 910 ng/mL; clearance [7]: 40 mL/min/kg; inhibition in vivo at 30 mg/kg (CT26 [8]): 56.4%; Activity [9]: Non-Toxic; half-life at 1 h (in vitro [10]): 31.5 min; microsomal CLint at 1 h (in vitro [11]): 67 µL/min/mg |
| CC(C)(Oc1cccc(N2CCC[C@H](NC(=O)N(Cc3ccc(-c4cn[nH]c4)cc3)C3CC3)C2)c1)C(=O)N1CCOCC1 | – | – | 8.24 | – |
| CC(C)(Oc1cccc(N2CCC[C@@H](C(=O)N(Cc3ccc(-c4cn[nH]c4)cc3)C3CC3)C2)c1)C(=O)N1CCNCC1 | – | – | 3.34 | inhibition in vivo at 30 mg/kg (CT26 [8]): 42.4%; inhibition in vivo at 30 mg/kg (CT26 [12]): 44.1%; Activity (CT26 [13]): 14.9%; Activity [14]: 5.17%; half-life at 1 h (in vitro [10]): 2.37 min; microsomal CLint at 1 h (in vitro [11]): 888 µL/min/mg |
| CC(C)(Oc1cccc(N2CCC[C@@H](NC(=O)N(Cc3ccc(-c4cn[nH]c4)cc3)C3CC3)C2)c1)C(=O)N1CCNCC1 | – | – | 4.67 | – |
| CC(C)(Oc1cccc(N2CCC[C@@H](NC(=O)N(Cc3ccc(-c4cn[nH]c4)cc3)C3CC3)C2)c1)C(=O)NCC(=O)N1CCCC1CCN (stereo partly specified) | 3.92 | 0.082 | 4.45 | – |
| CC(C)(Oc1cccc(N2CCC[C@@H](NC(=O)N(Cc3ccc(-c4cn[nH]c4)cc3)C3CC3)C2)c1)C(=O)NCCN | > 20 | 0.25 | 2.54 | – |
| CC(C)(Oc1cccc(N2CCC[C@H](NC(=O)N(Cc3ccc(-c4cn[nH]c4)cc3)C3CC3)C2)c1)C(=O)N1CCNCC1 | – | – | 4.35 | – |
